The values below come from US20200131180A1, “POSITIVE ALLOSTERIC MODULATORS OF THE MUSCARINIC ACETYLCHOLINE RECEPTOR M1” (Vanderbilt University, priority 2018, published 2020).

This test addresses T1, human mAChR M1 (Homo sapiens, UniProt P11229).
T1 sequence (P11229 1-460): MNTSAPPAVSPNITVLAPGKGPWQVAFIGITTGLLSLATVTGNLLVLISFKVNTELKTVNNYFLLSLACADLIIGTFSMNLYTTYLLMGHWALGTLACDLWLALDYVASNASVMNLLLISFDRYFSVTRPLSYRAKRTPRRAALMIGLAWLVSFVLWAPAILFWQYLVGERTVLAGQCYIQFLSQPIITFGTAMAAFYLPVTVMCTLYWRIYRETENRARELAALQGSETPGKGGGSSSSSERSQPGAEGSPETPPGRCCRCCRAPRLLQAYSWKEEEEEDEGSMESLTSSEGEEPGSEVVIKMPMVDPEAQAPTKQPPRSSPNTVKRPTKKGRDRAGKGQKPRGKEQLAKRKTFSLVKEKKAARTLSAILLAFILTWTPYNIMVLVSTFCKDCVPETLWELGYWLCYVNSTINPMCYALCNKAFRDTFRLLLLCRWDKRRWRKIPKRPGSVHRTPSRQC
The test is described as follows: mAChR M1 cell-based functional assay (calcium mobilization, PAM activity). Conditions: CHO-K1 cells expressing hM1, calcium flux (Fluo-4); for EC50: concentration-dependent increase in the EC20 acetylcholine response; for Emax: potentiation of EC20 acetylcholine response. An excerpt:
Chinese hamster ovary (CHO-K1) cells stably expressing rat (r)M1 were purchased from the American Type Culture Collection and cultured according to their indicated protocol. CHO cells stably expressing human (h)M2, hM3, and hM5 were described previously (Levey, et al., 1991); hM1 and hM4 cDNAs were purchased from Missouri S&T cDNA Resource; rM4 cDNA was provided by T. I. Bonner (National Institutes of Health, Bethesda, Md.). rM2 and rM3 were cloned from a rat brain cDNA library and sequence verified. hM1, rM2, rM3, hM4, and rM4 cDNAs were used to stably transfect CHO-K1 cells purchased from the American Type Culture Collection using Lipofectamine 2000. To make stable rM2, hM2, rM3, hM4, and rM4 cell lines for use in calcium mobilization assays, these cells also were stably transfected with a chimeric G-protein (Gqi5) (provided by B. R. Conklin, University of California, San Francisco) using Lipofectamine 2000. rM1, hM1, rM3, hM3, rM5, and hM5 cells were grown in Ham's F-12 medium containing 10% heat-inactivated fetal bovine serum (FBS), 20 mM HEPES, and 50 μg/mL G418 sulfate. rM2-Gqi5, hM2-Gqi5, and hM4-Gqi5 cells were grown in the same medium also containing 500 μg/mL Hygromycin B. Stable rM4-Gqi5 cells were grown in DMEM containing 10% heat-inactivated FBS, 20 mM HEPES, 400 μg/mL G418 sulfate, and 500 μg/mL Hygromycin B.
For high throughput measurement of agonist-evoked increases in intracellular calcium, CHO-K1 cells stably expressing muscarinic receptors were plated in growth medium lacking G418 and hygromycin at 15,000 cells/20 μL/well in Greiner 384-well black-walled, tissue culture (TC)-treated, clear-bottom plates (VWR). Cells were incubated overnight at 37° C. and 5% CO2. The next day, cells were washed using an ELX 405 (BioTek) with four washes (80 μL) of assay buffer then aspirated to 20 μL. Next, 20 μL of 16 μM Fluo-4/acetoxymethyl ester (Invitrogen, Carlsbad, Calif.) prepared as a 2.3 mM stock in DMSO and mixed in a 1:1 ratio with 10% (w/v) Pluronic F-127 and diluted in assay buffer was added to the wells and the cell plates were incubated for 50 min at 37° C. and 5% CO2. Dye was removed by washing with the ELX 405 (four 80 μL washes of assay buffer) then aspirated to 20 μL. Compound master plates were formatted in an 11 point CRC format (1:3 dilutions) in 100% DMSO with a starting concentration of 10 mM using the BRAVO liquid handler (Agilent). Test compound CRCs were then transferred to daughter plates (240 nL) using the Echo acoustic plate reformatter (Labcyte, Sunnyvale, Calif.) and then diluted into assay buffer (40 μL) to a 2× stock using a Thermo Fisher Combi (Thermo Fisher Scientific, Waltham, Mass.).
Calcium flux was measured using the Functional Drug Screening System (FDSS) 6000 (Hamamatsu Corporation, Tokyo, Japan) as an increase in the fluorescent static ratio. Compounds were applied to cells (20 μL, 2×) using the automated system of the FDSS 6000 at 4 s into the 300 s protocol and the data were collected at 1 Hz. At 144 s into the 300s protocol, 10 μL of an EC20 concentration of the muscarinic receptor agonist acetylcholine was added (5×), followed by the addition of 12 μL an EC80 concentration of acetylcholine at the 230 s time point (5×). Agonist activity was analyzed as a concentration-dependent increase in calcium mobilization upon compound addition. Emax values for agonist activity are expressed relative to the maximum for acetylcholine. Positive allosteric modulator activity was analyzed as a concentration-dependent increase in the EC20 acetylcholine response. Antagonist activity was analyzed as a concentration-dependent decrease in the EC80 acetylcholine response. Concentration-response curves were generated using a four-parameter logistical equation in XLfit curve fitting software (IDBS, Bridgewater, N.J.) for Excel (Microsoft, Redmond, Wash.) or Prism (GraphPad Software, Inc., San Diego, Calif.). […]
(In general: Calcium assays in cells follow changes in intracellular calcium, usually with a dye or a luminescent sensor.)

For `Cc1c(Cc2ccc(-c3ccn(C)n3)cc2)cc(C(=O)N[C@H]2CCOC[C@@H]2O)c2nccn12` [compound 50, N-[(3R,4S)-3-hydroxytetrahydropyran-4-yl]-5-methyl-6-[[4-(1-methylpyrazol-3-yl)phenyl]methyl]imidazo[1,2-a]pyridine-8-carboxamide], the EC50 was found to be 0.0246 µM and the Emax turned out to be 53%. With `Cn1cc(-c2ccc(Cc3cc(C(=O)NC4CC5(COC5)C4)c4ncnn4c3)cn2)cn1` [compound 15, 6-[[6-(1-methylpyrazol-4-yl)-3-pyridyl]methyl]-N-(2-oxaspiro[3.3]heptan-6-yl)-[1,2,4]triazolo[1,5-a]pyridine-8-carboxamide], the Emax was found to be 65%.

Consider `Cn1ccc(-c2ccc(Cc3cc(C(=O)NC4CC5(COC5)C4)c4nccn4c3)cc2)n1` [compound 3, 6-[[4-(1-methylpyrazol-3-yl)phenyl]methyl]-N-(2-oxaspiro[3.3]heptan-6-yl)imidazo[1,2-a]pyridine-8-carboxamide], for which the EC50 came to 4.29 µM and the Emax was 76%. Regarding `Cn1cc(-c2ccc(Cc3cc(C(=O)N[C@@H]4CC[C@H]4O)c4ncnn4c3)cn2)cn1` [compound 16, N-[(1R,2R)-2-hydroxycyclobutyl]-6-[[6-(1-methylpyrazol-4-yl)-3-pyridyl]methyl]-[1,2,4]triazolo[1,5-a]pyridine-8-carboxamide], the Emax amounted to 67%. `Cn1ccc(-c2cc(F)c(Cc3cc(C(=O)N[C@H]4CCOC[C@@H]4O)c4nccn4c3)c(F)c2)n1` [compound 38, 6-[[2,6-difluoro-4-(1-methylpyrazol-3-yl)phenyl]methyl]-N-[(3R,4S)-3-hydroxytetrahydropyran-4-yl]imidazo[1,2-a]pyridine-8-carboxamide]: the concentration giving a half-maximal response (EC50) is 0.507 µM and the Emax worked out at 69%.

Take `Cc1nc(-c2ccc(Cc3cc(C(=O)N[C@H]4CCOC[C@@H]4O)c4ncnn4c3)cc2)co1` [compound 29, N-[(3R,4S)-3-hydroxytetrahydropyran-4-yl]-6-[[4-(2-methyloxazol-4-yl)phenyl]methyl]-[1,2,4]triazolo[1,5-a]pyridine-8-carboxamide]: the 50% effective concentration (EC50) worked out at 2.55 µM and the Emax came to 82%. The corresponding values for `Cn1cc(-c2ccc(Cc3cc(C(=O)N[C@H]4CCCC[C@@H]4O)c4nccn4c3)c(F)c2)cn1` [compound 54, 6-[[2-fluoro-4-(1-methylpyrazol-4-yl)phenyl]methyl]-N-[(1S,2S)-2-hydroxycyclohexyl]imidazo[1,2-a]pyridine-8-carboxamide] are 0.217 µM and 70%.

Turning to `O=C(N[C@H]1CCOC[C@@H]1O)c1cc(Cc2ccc(-n3cccn3)cc2)cn2ccnc12` [compound 23, N-[(3R,4S)-3-hydroxytetrahydropyran-4-yl]-6-[(4-pyrazol-1-ylphenyl)methyl]imidazo[1,2-a]pyridine-8-carboxamide], the EC50 came out at 0.341 µM and the Emax worked out at 82%. For `Cn1cc(-c2ccc(Cc3cc(C(=O)N[C@H]4CCOC[C@@H]4O)c4nccn4c3)cc2)cn1` [compound 65, N-[(3R,4S)-3-hydroxytetrahydropyran-4-yl]-6-[[4-(1-methylpyrazol-4-yl)phenyl]methyl]imidazo[1,2-a]pyridine-8-carboxamide], the EC50 stood at 1.36 µM and the Emax came to 90%.

Consider `Cn1cc(-c2ccc(Cc3cc(C(=O)N[C@H]4CCC[C@@H]4O)c4nccn4c3)c(F)c2)cn1` [compound 58, 6-[[2-fluoro-4-(1-methylpyrazol-4-yl)phenyl]methyl]-N-[(1S,2S)-2-hydroxycyclopentyl]imidazo[1,2-a]pyridine-8-carboxamide], for which the EC50 turned out to be 0.991 µM and the Emax is 84%. As to `O=C(N[C@H]1CCCC[C@@H]1O)c1cc(Cc2ccc(-n3cccn3)cc2)cn2ccnc12` [compound 22, N-[(1S,2S)-2-hydroxycyclohexyl]-6-[(4-pyrazol-1-ylphenyl)methyl]imidazo[1,2-a]pyridine-8-carboxamide], the EC50 worked out at 0.61 µM and the Emax is 84%. Consider `Cn1ccc(-c2ccc(Cc3cc(C(=O)NC4CC5(COC5)C4)c4ncnn4c3)cc2)n1` [compound 9, 6-[[4-(1-methylpyrazol-3-yl)phenyl]methyl]-N-(2-oxaspiro[3.3]heptan-6-yl)-[1,2,4]triazolo[1,5-a]pyridine-8-carboxamide], for which the EC50 is 4.86 µM and the Emax came out at 66%. The corresponding values for `Cn1cc(-c2ccc(Cc3cc(C(=O)N[C@H]4CCCC[C@@H]4O)c4ncnn4c3)cn2)cn1` [compound 13, N-[(1S,2S)-2-hydroxycyclohexyl]-6-[[6-(1-methylpyrazol-4-yl)-3-pyridyl]methyl]-[1,2,4]triazolo[1,5-a]pyridine-8-carboxamide] are 0.729 µM and 84%. Take `Cn1cc(-c2cc(F)c(Cc3cc(C(=O)N[C@H]4CCCC[C@@H]4O)c4ncnn4c3)c(F)c2)cn1` [compound 44, 6-[[2,6-difluoro-4-(1-methylpyrazol-4-yl)phenyl]methyl]-N-[(1S,2S)-2-hydroxycyclohexyl]-[1,2,4]triazolo[1,5-a]pyridine-8-carboxamide]: the EC50 is 0.387 µM and the Emax turned out to be 82%. The corresponding values for `Cc1c(Cc2ccc(-c3ccn(C)n3)cc2)cc(C(=O)N[C@H]2CCCC[C@@H]2O)c2nccn12` [compound 51, N-[(1S,2S)-2-hydroxycyclohexyl]-5-methyl-6-[[4-(1-methylpyrazol-3-yl)phenyl]methyl]imidazo[1,2-a]pyridine-8-carboxamide] are 0.138 µM and 59%. Regarding `Cn1cc(-c2ccc(Cc3cc(C(=O)N[C@H]4CCC[C@@H]4O)c4ncnn4c3)cn2)cn1` [compound 17, N-[(1S,2S)-2-hydroxycyclopentyl]-6-[[6-(1-methylpyrazol-4-yl)-3-pyridyl]methyl]-[1,2,4]triazolo[1,5-a]pyridine-8-carboxamide], the EC50 was found to be 3.77 µM and the Emax was 86%. On to `Cn1cc(-c2ccc(Cc3cc(C(=O)N[C@H]4CCCC[C@@H]4O)c4nccn4c3)cc2)cn1` [compound 62, N-[(1S,2S)-2-hydroxycyclohexyl]-6-[[4-(1-methylpyrazol-4-yl)phenyl]methyl]imidazo[1,2-a]pyridine-8-carboxamide], for which the EC50 is 0.699 µM and the Emax came to 89%. Turning to `O=C(N[C@H]1CCC[C@@H]1O)c1cc(Cc2ccc(-n3cccn3)cc2)cn2ccnc12` [compound 24, N-[(1S,2S)-2-hydroxycyclopentyl]-6-[(4-pyrazol-1-ylphenyl)methyl]imidazo[1,2-a]pyridine-8-carboxamide], the EC50 was found to be 2.14 µM and the Emax amounted to 76%.

What is called EC50 is the concentration needed to bring the measured effect to its halfway point. As a reminder, the Emax is the greatest response seen or fitted, relative to the assay's reference.
